Experimental data published in PubChem BioAssay AID1919014 (Molecular Pharmacology Branch, DTP, NCI, 2023).
Where “and” joins values, the source holds several entries; their conditions need not be identical. Identical values can stand only once.

Test system: NCI-H1341 complex spheroids, percent test/control
Experiment: Anticancer human tumor NCI-H1341 cell line growth inhibition [AhR];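 note: spheroids exposed to agents for seven days before readout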
Conditions: for viability, T/C: stronger effect = lower value
Method in brief: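 Complex tumor spheroids co-cultured with HUVEC and human MSC stroma; AhR antagonists tested in combination with standard-of-care and investigational agents. Top concentration at or near clinical Cmax (else 10 microM), half-log dilutions; growth expressed as percent test/control.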

[1] = curve of first compound, second compound 0.1 µM
[2] = curve of first compound, second compound 0.316 µM
[3] = curve of first compound, second compound 1 µM
[4] = curve of first compound, second compound 3.16 µM
[5] = curve of first compound, second compound 10 µM
[6] = second compound 0.1 µM, first compound 0.0316 µM
[7] = second compound 0.1 µM, first compound 0.1 µM
[8] = second compound 0.1 µM, first compound 0.316 µM
[9] = second compound 0.1 µM, first compound 1 µM
[10] = second compound 0.1 µM, first compound 3.16 µM
[11] = second compound 0.1 µM, first compound 10 µM
[12] = second compound 0.316 µM, first compound 0.0316 µM
[13] = second compound 0.316 µM, first compound 0.1 µM
[14] = second compound 0.316 µM, first compound 0.316 µM
[15] = second compound 0.316 µM, first compound 1 µM
[16] = second compound 0.316 µM, first compound 3.16 µM
[17] = second compound 0.316 µM, first compound 10 µM
[18] = second compound 1 µM, first compound 0.0316 µM
[19] = second compound 1 µM, first compound 0.1 µM
[20] = second compound 1 µM, first compound 0.316 µM
[21] = second compound 1 µM, first compound 1 µM
[22] = second compound 1 µM, first compound 3.16 µM
[23] = second compound 1 µM, first compound 10 µM
[24] = second compound 3.16 µM, first compound 0.0316 µM
[25] = second compound 3.16 µM, first compound 0.1 µM
[26] = second compound 3.16 µM, first compound 0.316 µM
[27] = second compound 3.16 µM, first compound 1 µM
[28] = second compound 3.16 µM, first compound 3.16 µM
[29] = second compound 3.16 µM, first compound 10 µM
[30] = second compound 10 µM, first compound 0.0316 µM
[31] = second compound 10 µM, first compound 0.1 µM
[32] = second compound 10 µM, first compound 0.316 µM
[33] = second compound 10 µM, first compound 1 µM
[34] = second compound 10 µM, first compound 3.16 µM
[35] = second compound 10 µM, first compound 10 µM

IC50 [1]	IC50 [2]	IC50 [3]	IC50 [4]	IC50 [5]	SMILES	viability, T/C [6]	viability, T/C [7]	viability, T/C [8]	viability, T/C [9]	viability, T/C [12]	viability, T/C [13]	viability, T/C [14]	viability, T/C [15]	viability, T/C [18]	viability, T/C [19]	viability, T/C [20]	viability, T/C [21]	viability, T/C [24]	viability, T/C [25]	viability, T/C [26]	also measured
108 nM	83.3 nM	< 31.6 nM	< 31.6 nM	< 31.6 nM	NS(=O)(=O)OCC1CC(n2ccc3c(NC4CCc5ccccc54)ncnc32)CC1O (centres undefined) + Cc1cncc(-c2nc(NCCc3c[nH]c4ccccc34)c3ncn(C(C)C)c3n2)c1	50.1%	52.7%	33.8%	15.5%	54.4%	48.5%	34.8%	17.6%	42%	43.6%	35.5%	18.4%	49.4%	41.6%	41.4%	viability, T/C [10]: 14%; viability, T/C [11]: 12.5%; viability, T/C [16]: 16.8%; viability, T/C [17]: 12.4%; viability, T/C [22]: 15.7%; viability, T/C [23]: 15.8%; viability, T/C [27]: 27.6%; viability, T/C [28]: 19.5%; viability, T/C [29]: 17%; viability, T/C [30]: 26.4%; viability, T/C [31]: 31.7%; viability, T/C [32]: 29.9%; viability, T/C [33]: 25.2%; viability, T/C [34]: 21.4%; viability, T/C [35]: 20.1%
< 31.6 nM	< 31.6 nM	< 31.6 nM	< 31.6 nM	< 31.6 nM	Nc1ccn(C2OC(CO)C(O)C2(F)F)c(=O)n1 (centres undefined) + Cc1ccccc1N=Nc1ccc(NC(=O)c2ccnn2C)c(C)c1	33.4%	38.5%	43.6%	34.7%	40.3%	38%	34.7%	39.6%	43%	42.7%	35.5%	32.3%	45%	38.5%	38.7%	viability, T/C [10]: 32.5%; viability, T/C [11]: 34.7%; viability, T/C [16]: 31.6%; viability, T/C [17]: 38.5%; viability, T/C [22]: 31.1%; viability, T/C [23]: 35.3%; viability, T/C [27]: 32.3%; viability, T/C [28]: 36.9%; viability, T/C [29]: 32.5%; viability, T/C [30]: 44.2%; viability, T/C [31]: 40.4%; viability, T/C [32]: 41.4%; viability, T/C [33]: 34.9%; viability, T/C [34]: 29.7%; viability, T/C [35]: 39.3%
1600 nM	1090 nM	1540 nM	1490 nM	956 nM	CC1COCCN1c1cc(C2(S(C)(=N)=O)CC2)nc(-c2ccnc3[nH]ccc23)n1 (centres undefined) + CC(CO)NC(=O)c1cc(-c2ccc(Cl)cc2)nn(-c2cnn(C)c2)c1=O	89.6%	83.2%	96.7%	64.9%	78.8%	93.5%	70.1%	51.1%	77.3%	88.5%	88.4%	57.1%	95.8%	86.3%	87.8%	viability, T/C [10]: 29.7%; viability, T/C [11]: 21.9%; viability, T/C [16]: 32.4%; viability, T/C [17]: 20.4%; viability, T/C [22]: 35.5%; viability, T/C [23]: 19.6%; viability, T/C [27]: 58.6%; viability, T/C [28]: 31.7%; viability, T/C [29]: 17.6%; viability, T/C [30]: 83.2%; viability, T/C [31]: 84.9%; viability, T/C [32]: 67.9%; viability, T/C [33]: 52.1%; viability, T/C [34]: 24.8%; viability, T/C [35]: 18.8%

The remaining lines, values behind:

SMILES	IC50 [1]	IC50 [2]	IC50 [3]	IC50 [4]	IC50 [5]	viability, T/C [6]	viability, T/C [7]	viability, T/C [8]	viability, T/C [9]	viability, T/C [12]	viability, T/C [13]	viability, T/C [14]	viability, T/C [15]	viability, T/C [18]	viability, T/C [19]	viability, T/C [20]	viability, T/C [21]	viability, T/C [24]	viability, T/C [25]	viability, T/C [26]	also measured
CC1COCCN1c1cc(-c2ccnn2C)c2ccnc(-c3ccn[nH]3)c2n1 (centres undefined) + Cc1ccccc1N=Nc1ccc(NC(=O)c2ccnn2C)c(C)c1	97.6 nM	60.6 nM	113 nM	67.5 nM	9.13 nM	74.2%	48.5%	38.3%	26.2%	65.6%	39.3%	34.8%	29%	70.8%	52.6%	34.3%	25.9%	55.1%	44.4%	40.8%	viability, T/C (second compound 0.1 µM, first compound 0.00316 µM): 98.2%; viability, T/C (second compound 0.1 µM, first compound 0.01 µM): 99.1%; viability, T/C (second compound 0.316 µM, first compound 0.00316 µM): 104%; viability, T/C (second compound 0.316 µM, first compound 0.01 µM): 102%; viability, T/C (second compound 1 µM, first compound 0.00316 µM): 82.6%; viability, T/C (second compound 1 µM, first compound 0.01 µM): 92%; viability, T/C (second compound 3.16 µM, first compound 0.00316 µM): 84%; viability, T/C (second compound 3.16 µM, first compound 0.01 µM): 72.7%; viability, T/C [27]: 27.6%; viability, T/C (second compound 10 µM, first compound 0.00316 µM): 53.8%; viability, T/C (second compound 10 µM, first compound 0.01 µM): 51%; viability, T/C [30]: 44.3%; viability, T/C [31]: 37.1%; viability, T/C [32]: 30.7%; viability, T/C [33]: 25.6%
CC1COCCN1c1cc(-c2ccnn2C)c2ccnc(-c3ccn[nH]3)c2n1 (centres undefined)	–	–	–	–	–	–	–	–	–	–	–	–	–	–	–	–	–	–	–	–	viability, T/C (compound 0.00316 µM): 107% and 90.1% and 110%; viability, T/C (compound 0.01 µM): 115% and 99.5% and 98.4%; viability, T/C (compound 0.0316 µM): 60.1% and 77.4% and 53.4%; viability, T/C (compound 0.1 µM): 28.1% and 43% and 29.3%; viability, T/C (compound 0.316 µM): 23.1% and 38.5% and 23.2%; viability, T/C (compound 1 µM): 16.5% and 27.6% and 19.2%; IC50 (curve of compound): 43.2 nM and 79.6 nM and 38.3 nM
O=C(C=Cc1cccc(S(=O)(=O)Nc2ccccc2)c1)NO + CC(CO)NC(=O)c1cc(-c2ccc(Cl)cc2)nn(-c2cnn(C)c2)c1=O	230 nM	278 nM	258 nM	262 nM	163 nM	73.7%	65.4%	41.8%	27.1%	81.9%	65.6%	48.6%	27.8%	84.8%	68.1%	45.7%	25.5%	78.9%	63.3%	49.7%	viability, T/C [10]: 4.5%; viability, T/C [11]: 0.64%; viability, T/C [16]: 5.91%; viability, T/C [17]: 0.46%; viability, T/C [22]: 5.09%; viability, T/C [23]: 1.14%; viability, T/C [27]: 21.9%; viability, T/C [28]: 5.78%; viability, T/C [29]: 0.71%; viability, T/C [30]: 70.6%; viability, T/C [31]: 52.7%; viability, T/C [32]: 44.5%; viability, T/C [33]: 20.3%; viability, T/C [34]: 5.56%; viability, T/C [35]: 0.44%
CC(C)CC(NC(=O)C(Cc1ccccc1)NC(=O)c1cnccn1)B(O)O (centres undefined)	–	–	–	–	–	–	–	–	–	–	–	–	–	–	–	–	–	–	–	–	viability, T/C (compound 0.000949 µM): 97% and 95% and 100%; viability, T/C (compound 0.003 µM): 87.7% and 87% and 79%; viability, T/C (compound 0.00949 µM): 2.76% and 3.47% and 0.86%; viability, T/C (compound 0.03 µM): 0.19% and 0.35% and 0.14%; viability, T/C (compound 0.0949 µM): 0.14% and 0.25% and 0.11%; viability, T/C (compound 0.3 µM): 0.17% and 0.31% and 0.15%; IC50 (curve of compound): 5 nM and 4.6 nM
